In ChEMBL document CHEMBL4330107, “Synthesis and biological evaluation of 3-aryl-4-indolyl-maleimides as potent mutant isocitrate dehydrogenase-1 inhibitors” (Bioorg Med Chem, 2019):
Blank lines part the entries; values can stand above or below the compound they belong to. Activity calls are given as the source filed them. No cut-off for these calls is given here.

Legend:
[1] = molecular target: Isocitrate dehydrogenase [NADP] cytoplasmic (Homo sapiens, UniProt O75874, R132H); assay: Inhibition of recombinant human N-terminal GST-fused IDH1 R132H mutant expressed in Escherichia coli using alpha-ketoglutarate as substrate preincubated for 15 mins followed by substrate addition
Chain of Isocitrate dehydrogenase [NADP] cytoplasmic (Homo sapiens, UniProt O75874, R132H) (O75874 2-414 R132H limits assumed): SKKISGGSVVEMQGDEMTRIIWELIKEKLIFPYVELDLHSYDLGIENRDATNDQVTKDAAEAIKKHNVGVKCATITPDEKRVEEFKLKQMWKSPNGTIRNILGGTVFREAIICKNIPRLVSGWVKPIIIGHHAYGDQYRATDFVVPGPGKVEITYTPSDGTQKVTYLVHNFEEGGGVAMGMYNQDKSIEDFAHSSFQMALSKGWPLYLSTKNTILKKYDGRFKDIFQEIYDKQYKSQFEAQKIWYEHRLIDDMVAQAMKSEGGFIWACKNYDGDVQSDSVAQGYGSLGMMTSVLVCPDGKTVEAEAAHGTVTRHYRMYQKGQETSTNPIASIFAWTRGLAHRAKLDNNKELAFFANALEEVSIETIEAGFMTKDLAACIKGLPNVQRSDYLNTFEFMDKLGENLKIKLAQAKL

[2] = system: Isocitrate dehydrogenase [NADP] cytoplasmic (Homo sapiens), O75874 [R132H]; assay: Inhibition of recombinant human N-terminal GST-fused IDH1 R132H mutant expressed in Escherichia coli at 20 ug/ml using alpha-ketoglutarate as substrate preincubated for 15 mins followed by substrate addition relative to control
Chain of Isocitrate dehydrogenase [NADP] cytoplasmic (Homo sapiens), O75874 [R132H] (O75874 whole entry R132H, the tested form may be a part): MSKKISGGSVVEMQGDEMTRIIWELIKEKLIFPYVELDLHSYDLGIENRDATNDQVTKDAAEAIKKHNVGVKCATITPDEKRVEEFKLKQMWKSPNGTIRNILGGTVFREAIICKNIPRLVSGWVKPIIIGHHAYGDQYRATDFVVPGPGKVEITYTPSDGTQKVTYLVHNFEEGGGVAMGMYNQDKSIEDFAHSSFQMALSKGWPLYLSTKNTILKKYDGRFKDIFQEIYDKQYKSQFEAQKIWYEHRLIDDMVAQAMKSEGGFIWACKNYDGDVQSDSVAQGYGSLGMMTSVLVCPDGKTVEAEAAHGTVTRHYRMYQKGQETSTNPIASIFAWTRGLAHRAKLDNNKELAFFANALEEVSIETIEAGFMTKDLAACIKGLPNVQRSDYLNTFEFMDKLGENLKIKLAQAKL

[3] = system: Isocitrate dehydrogenase [NADP] cytoplasmic (Homo sapiens), O75874 [R132H]; assay: Inhibition of human IDH1 R132H mutant expressed in human U87MG cells assessed as reduction in 2-HG production at 5 to 20 uM after 48 hrs by LC-MS/MS analysis; type: cell-based
[4] = molecular target: T1, Hexokinase-4 (Homo sapiens, UniProt P35557); assay: Inhibition of recombinant human N-terminal GST-fused glucokinase expressed in Escherichia coli using […] by spectrophotometric assay
T1 sequence (P35557 whole entry): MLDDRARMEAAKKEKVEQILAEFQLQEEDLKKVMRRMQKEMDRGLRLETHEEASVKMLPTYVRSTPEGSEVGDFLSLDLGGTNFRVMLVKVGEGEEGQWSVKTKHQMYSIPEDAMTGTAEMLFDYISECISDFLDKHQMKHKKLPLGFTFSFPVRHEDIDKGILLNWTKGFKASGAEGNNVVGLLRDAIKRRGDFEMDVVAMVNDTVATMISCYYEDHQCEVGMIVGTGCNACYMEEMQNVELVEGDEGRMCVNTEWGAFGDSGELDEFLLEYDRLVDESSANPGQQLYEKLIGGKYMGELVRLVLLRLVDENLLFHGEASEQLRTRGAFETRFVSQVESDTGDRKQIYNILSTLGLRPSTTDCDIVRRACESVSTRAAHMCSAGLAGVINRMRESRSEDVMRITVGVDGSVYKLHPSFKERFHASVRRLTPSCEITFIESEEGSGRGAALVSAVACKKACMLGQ

[5] = molecular target: Isocitrate dehydrogenase [NADP] cytoplasmic (Homo sapiens, UniProt O75874, R132C); assay: Inhibition of recombinant human N-terminal GST-fused IDH1 R132C mutant expressed in Escherichia coli using alpha-ketoglutarate as substrate preincubated for 15 mins followed by substrate addition
Chain of Isocitrate dehydrogenase [NADP] cytoplasmic (Homo sapiens, UniProt O75874, R132C) (O75874 2-414 R132C limits assumed): as the sequence (O75874 2-414 R132H limits assumed) above, with H131C counted along it

[6] = molecular target: Isocitrate dehydrogenase [NADP] cytoplasmic (Homo sapiens, UniProt O75874, R132L); assay: Inhibition of recombinant human N-terminal GST-fused IDH1 R132L mutant expressed in Escherichia coli using alpha-ketoglutarate as substrate preincubated for 15 mins followed by substrate addition
Chain of Isocitrate dehydrogenase [NADP] cytoplasmic (Homo sapiens, UniProt O75874, R132L) (O75874 2-414 R132L limits assumed): as the sequence (O75874 2-414 R132H limits assumed) above, with H131L counted along it

[7] = Inhibition of Fructose-1,6-bisphosphatase expressed in Escherichia coli BL21 (DE3) by glucose-6-phosphate dehydrogenase/phosphoglucoisomerase coupled spectrophotometric method; design: species or system Corynebacterium glutamicum
[8] = molecular target: Isocitrate dehydrogenase [NADP] cytoplasmic (Homo sapiens, UniProt O75874); assay: Inhibition of recombinant human N-terminal GST-fused wild-type IDH1 using sodium (D)-isocitrate as substrate by fluorescence assay
Chain of Isocitrate dehydrogenase [NADP] cytoplasmic (Homo sapiens, UniProt O75874) (O75874 whole entry, the tested form may be a part): as the sequence (O75874 whole entry R132H, the tested form may be a part) above, with H132R counted along it

[9] = Inhibition of bovine GDH using L-glutamate as substrate measured after 1 hr; design: species or system Bos taurus
[10] = molecular target: T2, Isocitrate dehydrogenase [NADP], mitochondrial (Homo sapiens, UniProt P48735); assay: Inhibition of recombinant human N-terminal GST-fused wild-type IDH2 using sodium (D)-isocitrate as substrate preincubated for 15 mins followed by substrate addition by fluorescence assay
T2 sequence (P48735 whole entry): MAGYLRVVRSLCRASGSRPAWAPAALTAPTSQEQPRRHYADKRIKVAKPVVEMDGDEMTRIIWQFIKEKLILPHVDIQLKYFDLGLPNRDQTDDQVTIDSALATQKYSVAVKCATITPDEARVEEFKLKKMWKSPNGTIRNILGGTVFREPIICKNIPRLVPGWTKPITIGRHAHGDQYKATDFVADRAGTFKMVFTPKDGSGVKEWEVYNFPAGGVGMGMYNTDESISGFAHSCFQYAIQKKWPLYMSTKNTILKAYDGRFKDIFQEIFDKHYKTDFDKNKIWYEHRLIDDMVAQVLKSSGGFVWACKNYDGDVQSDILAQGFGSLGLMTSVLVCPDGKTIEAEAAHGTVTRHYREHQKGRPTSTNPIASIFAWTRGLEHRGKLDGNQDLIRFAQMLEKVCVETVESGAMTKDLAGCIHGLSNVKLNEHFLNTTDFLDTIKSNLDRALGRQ

[11] = system: Isocitrate dehydrogenase [NADP] cytoplasmic (Homo sapiens), O75874 [R132H]; assay: Inhibition of human IDH1 R132H mutant expressed in human U87MG cells assessed as reduction in 2-HG production after 48 hrs by LC-MS/MS analysis; type: cell-based
[12] = system: Isocitrate dehydrogenase [NADP] cytoplasmic (Homo sapiens), O75874 [R132H]; assay: Inhibition of IDH1 R132H mutant in human TF1 cells assessed as reversal of cell differentiation block by measuring increase in HBG mRNA expression at 5 to 10 uM after 7 days by RT-qPCR analysis; type: cell-based

- IC50 [1]: 2220 nM
Structure (SMILES): O=C1NC(=O)C(c2cn(CCCn3ccnc3)c3ccccc23)=C1c1coc2ncccc12

- IC50 [1]: 1580 nM
Structure (SMILES): O=C1NC(=O)C(c2cn(CCCn3ccnc3)c3ccccc23)=C1c1cc[nH]c1

- inhibition [2]: 17.3%
Structure (SMILES): Cn1cc(C2=C(c3nn(CCCN4CCOCC4)c4ncccc34)C(=O)NC2=O)c2ccccc21

- inhibition [2]: 20.6%
Structure (SMILES): Cn1cc(C2=C(c3nn(CCCn4cncn4)c4ncccc34)C(=O)NC2=O)c2ccccc21

- inhibition [3]: inactive
- IC50 [4]: > 20 µM
- IC50 [5]: 415 nM
- IC50 [6]: 311 nM
- IC50 [7]: > 20 µM
- IC50 [8]: > 20 µM
- IC50 [9]: > 20 µM
- IC50 [10]: > 20 µM
- IC50 [1]: 100 nM
Structure (SMILES): Cn1nc(C2=C(c3cn(CCCCn4ccnc4)c4ccccc34)C(=O)NC2=O)c2cccnc21

- IC50 [1]: 1980 nM
Structure (SMILES): O=C1NC(=O)C(c2cn(CCCn3ccnc3)c3ccccc23)=C1c1ccccc1

- IC50 [4]: > 20 µM
- IC50 [5]: 423 nM
- IC50 [6]: 307 nM
- IC50 [7]: > 20 µM
- inhibition [11]: Dose-dependent effect
- IC50 [8]: > 20 µM
- IC50 [9]: > 20 µM
- IC50 [10]: > 20 µM
- IC50 [1]: 140 nM
Structure (SMILES): Cn1nc(C2=C(c3cn(CCCn4ccnc4)c4cc(Cl)ccc34)C(=O)NC2=O)c2cccnc21

- IC50 [1]: 1480 nM
Structure (SMILES): Cn1cc(C2=C(c3cn(CCCn4ccnc4)c4ccccc34)C(=O)NC2=O)c2ccccc21

- IC50 [1]: 950 nM
Structure (SMILES): CCCCn1nc(C2=C(c3cn(CCCn4ccnc4)c4ccccc34)C(=O)NC2=O)c2cccnc21

- IC50 [4]: > 20 µM
- IC50 [5]: 483 nM
- IC50 [6]: 189 nM
- IC50 [7]: > 20 µM
- inhibition [11]: Dose-dependent effect
- IC50 [8]: > 20 µM
- IC50 [9]: > 20 µM
- IC50 [10]: > 20 µM
- IC50 [1]: 60 nM
Structure (SMILES): Cc1ccc2c(C3=C(c4nn(C)c5ncccc45)C(=O)NC3=O)cn(CCCn3ccnc3)c2c1

- IC50 [1]: 190 nM
Structure (SMILES): COc1ccc2c(C3=C(c4nn(C)c5ncccc45)C(=O)NC3=O)cn(CCCn3ccnc3)c2c1

- IC50 [1]: 7910 nM
Structure (SMILES): O=C1NC(=O)C(n2cnc3ccccc32)=C1c1cn(CCCn2ccnc2)c2ccccc12

- IC50 [1]: 13600 nM
Structure (SMILES): COc1ccc2c(c1)c(C1=C(c3nn(C)c4ncccc34)C(=O)NC1=O)cn2CCCn1ccnc1

- IC50 [1]: 1540 nM
Structure (SMILES): Cn1nc(C2=C(c3cn(CCCn4ccnc4)c4ccccc34)C(=O)NC2=O)c2ccccc21

- IC50 [1]: 1400 nM
Structure (SMILES): O=C1NC(=O)C(n2nnc3ccccc32)=C1c1cn(CCCn2ccnc2)c2ccccc12

- IC50 [1]: 930 nM
Structure (SMILES): Cn1nc(C2=C(c3cn(CCCn4ccnc4)c4cccc(Br)c34)C(=O)NC2=O)c2cccnc21

- IC50 [1]: 230 nM
Structure (SMILES): CCn1nc(C2=C(c3cn(CCCn4ccnc4)c4ccccc34)C(=O)NC2=O)c2cccnc21

- inhibition [3]: inactive
- IC50 [4]: > 20 µM
- IC50 [5]: 386 nM
- IC50 [6]: 398 nM
- IC50 [7]: > 20 µM
- IC50 [8]: > 20 µM
- IC50 [9]: > 20 µM
- IC50 [10]: > 20 µM
- IC50 [1]: 50 nM
Structure (SMILES): Cn1nc(C2=C(c3cn(CCCn4ccnc4)c4ccccc34)C(=O)NC2=O)c2cccnc21

- IC50 [1]: 5000 nM
Structure (SMILES): Cn1nc(C2=C(c3cn(CCCn4ccnc4)c4ccc(Br)cc34)C(=O)NC2=O)c2cccnc21

- IC50 [1]: 4420 nM
Structure (SMILES): Cn1nc(C2=C(c3cn(CCn4ccnc4)c4ccccc34)C(=O)NC2=O)c2cccnc21

- inhibition [2]: 7.36%
Structure (SMILES): Cn1nc(C2=C(c3cn(CCCN4CCOCC4)c4ccccc34)C(=O)NC2=O)c2cccnc21

- IC50 [4]: > 20 µM
- inhibition [12]: Active
- IC50 [5]: 460 nM
- IC50 [6]: 192 nM
- IC50 [7]: > 20 µM
- inhibition [11]: Dose-dependent effect
- IC50 [8]: > 20 µM
- IC50 [9]: > 20 µM
- IC50 [10]: > 20 µM
- IC50 [1]: 60 nM
Structure (SMILES): Cn1nc(C2=C(c3cn(CCCn4ccnc4)c4cc(Br)ccc34)C(=O)NC2=O)c2cccnc21

- IC50 [1]: 290 nM
Structure (SMILES): Cc1cccc2c(C3=C(c4nn(C)c5ncccc45)C(=O)NC3=O)cn(CCCn3ccnc3)c12

- IC50 [4]: > 20 µM
- IC50 [5]: 334 nM
- IC50 [6]: 246 nM
- IC50 [7]: > 20 µM
- inhibition [11]: Dose-dependent effect
- IC50 [8]: > 20 µM
- IC50 [9]: > 20 µM
- IC50 [10]: > 20 µM
- IC50 [1]: 90 nM
Structure (SMILES): Cn1nc(C2=C(c3cn(CCCn4ccnc4)c4cc(F)ccc34)C(=O)NC2=O)c2cccnc21

- IC50 [1]: 1450 nM
Structure (SMILES): O=C1NC(=O)C(n2ccc3ccncc32)=C1c1cn(CCCn2ccnc2)c2ccccc12

- IC50 [1]: 810 nM
Structure (SMILES): Cn1nc(C2=C(c3cn(CCCn4ccnc4)c4ccc(F)cc34)C(=O)NC2=O)c2cccnc21

- IC50 [4]: > 20 µM
- IC50 [5]: 227 nM
- IC50 [6]: 186 nM
- IC50 [7]: > 20 µM
- IC50 [8]: > 20 µM
- IC50 [9]: > 20 µM
- IC50 [10]: > 20 µM
- IC50 [1]: 20 nM
Structure (SMILES): Cc1ccccc1C(C(=O)NC1CCCCC1)N(C(=O)Cn1ccnc1C)c1cccc(F)c1 (stereo not given)

- IC50 [1]: 3050 nM
Structure (SMILES): O=C1NC(=O)C(c2cn(CCCn3ccnc3)c3ccccc23)=C1c1cccc2ccccc12

- inhibition [2]: 38.1%
Structure (SMILES): Cn1nc(C2=C(c3c[nH]c4ccccc34)C(=O)NC2=O)c2cccnc21

- IC50 [1]: 1280 nM
Structure (SMILES): Cn1cc(C2=C(c3nn(CCCn4ccnc4)c4ncccc34)C(=O)NC2=O)c2ccccc21

- IC50 [1]: 11900 nM
Structure (SMILES): Cn1nc(C2=C(c3cn(CCCn4cncn4)c4ccccc34)C(=O)NC2=O)c2cccnc21

- IC50 [1]: 3720 nM
Structure (SMILES): O=C1NC(=O)C(n2ccc3cnccc32)=C1c1cn(CCCn2ccnc2)c2ccccc12

- IC50 [1]: 39600 nM
Structure (SMILES): Cn1nc(C2=C(c3cn(CCCO)c4ccccc34)C(=O)NC2=O)c2cccnc21

- IC50 [1]: 930 nM
Structure (SMILES): CN1C(=O)C(c2cn(CCCn3ccnc3)c3ccccc23)=C(c2nn(C)c3ncccc23)C1=O
